Assay results reported in patent publication US20250009632A1, “HEIGHT-ADJUSTABLE SPRINKLER” (BTGIN CO., LTD., priority 2021, published 2025).

Experiments:
S. mutans [1] = assay: Amount of organic acid produced in dental plaque (HPLC of S. mutans culture medium); format: cell-based, Streptococcus mutans; conditions: 48 h culture, high concentration (100 μg/ml)
Experimental: • 1) To a brain heart infusion (BHI) broth (2 ml), 20 μl of each of sample extracts by concentrations in Table 3 below was added. For a control group, sterilized water was used instead of sample extracts. • 2) S. mutans was inoculated to reach 10^5-10^6. • 3) The cells were cultured in an incubator at 37° C. for 48 hours. • 4) The amount of the acid secreted in the medium was measured using HPLC.
**HPLC: analyzed by the joint equipment research lab of Dankook University Industry-Academia Cooperation (Citric, pyruvic, succinic, lactic, formic, acetic, propionic, isobutyric, butyric, and isovaleric acid).
S. mutans strain was inoculated into 2 ml of the brain heart infusion (BHI) liquid medium at a concentration of 1×10^5 CFU/ml, and a predetermined concentration of each sample was injected, followed by culturing for 48 hours. The culture was centrifuged at 13,000 rpm for 5 minutes, and then the supernatant was transferred to a new tube and filtered with a 0.45 μm syringe filter. Thereafter, HPLC analysis was performed. HPLC analysis conditions are as follows. Mobile phase (Isocratic elution): 10 mM potassium phosphate monobasic (pH 3, a phosphoric acid salt)/MeOH=(98/2), Column oven Temp.: 30° C., flow rate: 1 ml/min, wavelength: 220 nm, and injection amount: 10 μl

S. mutans [2] = assay: Analysis of dental plaque reduction (S. mutans attached to glass tube wall, absorbance at 550 nm); format: cell-based, Streptococcus mutans
Experimental: • 1) A brain heart infusion (BHI) broth (5 ml) containing 1% sucrose was added in 50 ml glass tube, and 50 μl of each of sample extracts by concentrations shown in Table 2 below was added. For a control group, sterilized water was used instead of sample extracts. • 2) S. mutans was inoculated to reach 10^5. • 3) The glass tube was cultured statically in an incubator at 37° C. for 24 hours while tilted at 30°. • 4) After culturing, 5 ml of 0.5 M NaOH solution was added to suspend the cells attached to the wall. • 5) One milliliter of suspension was taken and measured for absorbance at 550 nm. S. mutans strain was cultured statically for 24 hours after inoculation while tilted at 30°. When the culture medium was carefully poured out after the static culture, it was observed that bacteria were attached to the wall of the glass tube (FIG. 1, red arrow). Thereafter, the bacteria were suspended by addition of 0.5 M NaOH, and 1 ml of the suspended solution was measured for absorbance at 550 nm. As a result, there was a reduction in dental plaque from a BTEX-K concentration of 50 μg/ml.

For `CC(C)=CCC[C@](C)(O[C@@H]1O[C@H](CO)[C@@H](O)[C@H](O)[C@H]1O)[C@H]1CC[C@]2(C)[C@@H]1[C@H](O)C[C@@H]1[C@@]3(C)CC[C@H](O)C(C)(C)[C@@H]3CC[C@]12C` [ginsenoside compound K], the “reduction in lactic acid content compared to the control group” value (S. mutans [1]; HPLC, p<0.0001) was “approximately 2 fold”, the “HPLC peak at retention time of around 4.6 minutes (lactic acid)” value (S. mutans [1]; vs control) was “decreased” and the “growth of S. mutans strain” value (S. mutans [2]; at 100 μg/ml, as seen in the dental plaque reduction experiment) was “inhibited”. The “concentration at which dental plaque reduction was observed” value (S. mutans [2]; summary statement, absorbance at 550 nm) was 20 µg/mL.
